Measured values from patent US20250381179A1, “CHROMAN-BASED COMPOUNDS FOR TREATING CANCER” (priority 2024, published 2025).

Assay: Phase 1 study: safety and tolerability (TEAEs, NCI CTCAE v5.0)
Experimental: The study employed an open-label, 3+3 design, with the option of adding backfill patients to each cohort cleared and deemed safe. […] Tumor responses were assessed every 2 cycles using RECIST v1.1 criteria. […] The study also involves an ongoing dose escalation study where participants receive 100 mg, 200 mg, 300 mg, 400 mg, and 600 mg once daily (QD) dose levels.
Safety was assessed through the analysis of the reported incidence of treatment-emergent AEs. Treatment-emergent AEs are those with an onset on or after the initiation of therapy and will be graded according to NCI CTCAE Version 5.0. Other safety endpoints, including laboratory results, vital signs, and ECG findings, were summarized for all patients in the Safety set.

[1] = Cohort 2/200 mg QD, patient 1, first listed event
[2] = Cohort 2/200 mg QD, patient 1, second listed event

O=C1CC[C@H](N2Cc3cc(N4CCN(CC5CCN(c6ccc([C@@H]7c8ccc(O)cc8OC[C@@H]7c7ccccc7)cc6F)CC5)CC4)ccc3C2=O)C(=O)N1 [compound (1-g), (S)-3-(5-(4-((1-(2-fluoro-4-((3S,4R)-7-hydroxy-3-phenylchroman-4-yl)phenyl)piperidin-4-yl)methyl)piperazin-1-yl)-1-oxoisoindolin-2-yl)piperidine-2,6-dione]
TEAE: Influenza Like Illness (600 mg QD (N = 4)): 0 n (%)
TEAE: Insomnia (600 mg QD (N = 4)): 0 n (%)
TEAE: Lower Respiratory Tract Congestion (600 mg QD (N = 4)): 0 n (%)
TEAE: Lymphocyte Count Decreased (600 mg QD (N = 4)): 0 n (%)
TEAE: Muscle Spasm (600 mg QD (N = 4)): 0 n (%)
TEAE: Muscular Weakness (600 mg QD (N = 4)): 0 n (%)
TEAE: Musculoskeletal Stiffness (600 mg QD (N = 4)): 0 n (%)
TEAE: Nail Disorder (600 mg QD (N = 4)): 0 n (%)
TEAE: Nasal Congestion (600 mg QD (N = 4)): 0 n (%)
TEAE: Nausea (600 mg QD (N = 4)): 0 n (%)
TEAE: Neutrophil Count Decreased (600 mg QD (N = 4)): 1 (25.0) n (%)
TEAE: Oedema Peripheral (600 mg QD (N = 4)): 0 n (%)
TEAE: Ophthalmic Migraine (600 mg QD (N = 4)): 0 n (%)
TEAE: Oral Pain (600 mg QD (N = 4)): 0 n (%)
TEAE: Pain In Extremity (600 mg QD (N = 4)): 0 n (%)
TEAE: Pharyngitis (600 mg QD (N = 4)): 0 n (%)
TEAE: Platelet Count Decreased (600 mg QD (N = 4)): 0 n (%)
TEAE: Pleural Effusion (600 mg QD (N = 4)): 0 n (%)
TEAE: Pneumonia (600 mg QD (N = 4)): 0 n (%)
TEAE: Productive Cough (600 mg QD (N = 4)): 0 n (%)
TEAE: Rash Maculo-Papular (600 mg QD (N = 4)): 0 n (%)
TEAE: Rhinitis Allergic (600 mg QD (N = 4)): 0 n (%)
TEAE: Rib Fracture (600 mg QD (N = 4)): 0 n (%)
TEAE: Seizure (600 mg QD (N = 4)): 0 n (%)
TEAE: Sepsis (600 mg QD (N = 4)): 0 n (%)
TEAE: Tremor (600 mg QD (N = 4)): 0 n (%)
TEAE: Upper Respiratory Tract Infection (600 mg QD (N = 4)): 0 n (%)
TEAE: Urinary Tract Infection (600 mg QD (N = 4)): 0 n (%)
TEAE: Vaginal Haemorrhage (600 mg QD (N = 4)): 0 n (%)
TEAE: Vomiting (600 mg QD (N = 4)): 0 n (%)
related TEAE: Alopecia (600 mg QD (N = 4)): 0 n (%)
related TEAE: Arthralgia (600 mg QD (N = 4)): 0 n (%)
related TEAE: Constipation (600 mg QD (N = 4)): 1 (25.0) n (%)
related TEAE: Diarrhea (600 mg QD (N = 4)): 0 n (%)
related TEAE: Dysgeusia (600 mg QD (N = 4)): 0 n (%)
related TEAE: Eructation (600 mg QD (N = 4)): 0 n (%)
related TEAE: Fatigue (600 mg QD (N = 4)): 0 n (%)
related TEAE: Flatulence (600 mg QD (N = 4)): 0 n (%)
related TEAE: Hot Flush (600 mg QD (N = 4)): 1 (25.0) n (%)
related TEAE: Hyperhidrosis (600 mg QD (N = 4)): 1 (25.0) n (%)
related TEAE: Nail Disorder (600 mg QD (N = 4)): 0 n (%)
related TEAE: Nausea (600 mg QD (N = 4)): 0 n (%)
related TEAE: Neutrophil Count Decreased (600 mg QD (N = 4)): 1 (25.0) n (%)
related TEAE: Platelet Count Decreased (600 mg QD (N = 4)): 0 n (%)
related TEAE: Tremor (600 mg QD (N = 4)): 0 n (%)
related TEAE: Vomiting (600 mg QD (N = 4)): 0 n (%)
correlation of TEAE incidence with dose level (100-600 mg QD): did not seem to correlate with increasing dose levels
dose limiting toxicities (100-600 mg QD, 37 patients): No dose limiting toxicities were observed
participants with TEAEs that led to dose interruption (Cohort 1 (100 mg QD)): 3 participants
CTCAE Grade of TEAE leading to dose interruption: Fall (Cohort 1/100 mg QD, patient 1): 2
Duration of TEAE leading to dose interruption: Fall (Cohort 1/100 mg QD, patient 1): 1 days
Related to Compound (1-g), TEAE leading to dose interruption: Fall (Cohort 1/100 mg QD, patient 1): No
CTCAE Grade of TEAE leading to dose interruption: Fatigue (Cohort 1/100 mg QD, patient 2): 3
Related to Compound (1-g), TEAE leading to dose interruption: Fatigue (Cohort 1/100 mg QD, patient 2): No
CTCAE Grade of TEAE leading to dose interruption: Confusional state (Cohort 1/100 mg QD, patient 3): 2
Duration of TEAE leading to dose interruption: Confusional state (Cohort 1/100 mg QD, patient 3): 2 days
Related to Compound (1-g), TEAE leading to dose interruption: Confusional state (Cohort 1/100 mg QD, patient 3): No
participants with TEAEs that led to dose interruption (Cohort 2 (200 mg QD)): 4 participants
CTCAE Grade of TEAE leading to dose interruption: Anaemia [1]: 2
Duration of TEAE leading to dose interruption: Anaemia [1]: 28 days
Related to Compound (1-g), TEAE leading to dose interruption: Anaemia [1]: No
CTCAE Grade of TEAE leading to dose interruption: Anaemia [2]: 3
Related to Compound (1-g), TEAE leading to dose interruption: Anaemia [2]: No
CTCAE Grade of TEAE leading to dose interruption: Fatigue (Cohort 2/200 mg QD, patient 2): 2
CTCAE Grade of TEAE leading to dose interruption: Muscular weakness (Cohort 2/200 mg QD, patient 2): 2
Related to Compound (1-g), TEAE leading to dose interruption: Fatigue (Cohort 2/200 mg QD, patient 2): No
Related to Compound (1-g), TEAE leading to dose interruption: Muscular weakness (Cohort 2/200 mg QD, patient 2): No
CTCAE Grade of TEAE leading to dose interruption: Seizure (Cohort 2/200 mg QD, patient 3): 3
CTCAE Grade of TEAE leading to dose interruption: Sepsis (Cohort 2/200 mg QD, patient 3): 3
Duration of TEAE leading to dose interruption: Seizure (Cohort 2/200 mg QD, patient 3): 20 days
Duration of TEAE leading to dose interruption: Sepsis (Cohort 2/200 mg QD, patient 3): 20 days
Related to Compound (1-g), TEAE leading to dose interruption: Seizure (Cohort 2/200 mg QD, patient 3): No
Related to Compound (1-g), TEAE leading to dose interruption: Sepsis (Cohort 2/200 mg QD, patient 3): No
CTCAE Grade of TEAE leading to dose interruption: Pain in extremity (Cohort 2/200 mg QD, patient 4, first listed event): 1
